Reference: patent publication US12052991B2, “Substituted pyridinyloxybenzenes and salts thereof and use thereof as herbicidal agents” (Bayer Aktiengesellschaft, priority 2018, dated 2024)

What was measured:
Type in all cases: in vivo
[1] = system: Echinochloa crus-galli (ECHCG); test: Herbicidal post-emergence action (Table B1); details: rated visually after about 3 weeks, 100% = plants have died, 0% = like control plants
Procedure, shortened: (§1)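 Post-emergence spray, one-leaf stage (2–3 wk after sowing), sandy loam, greenhouse. WP/EC in water + 0.5% additive, 600 L/ha, 1280 or 320 g/ha. Visual % activity vs untreated after ~3 wk (0% = like control, 100% = plants dead).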

Lolium rigidum (LOLRI) [2] = test: Herbicidal post-emergence action (Table B2); details: 1280 g/ha; rated visually after about 3 weeks; 100% = plants have died, 0% = like control plants
Description: (§2) Seeds of mono- and dicotyledonous weed plants were placed in plastic pots in sandy loam soil (doubly sown with in each case one species of mono- or dicotyledonous weed plants per pot), covered with soil and cultivated in a greenhouse under controlled growth conditions. 2 to 3 weeks after sowing, the test plants were treated at the one-leaf stage. The compounds of the invention, formulated in the form of wettable powders (WP) or as emulsion concentrates (EC), were applied onto the green parts of the plants as aqueous suspension or emulsion with addition of 0.5% additive at a water application rate of 600 liters per hectare (converted). After the test plants had been kept in the greenhouse under optimum growth conditions for about 3 weeks, the activity of the preparations was rated visually in comparison to untreated controls. For example, 100% activity=the plants have died, 0% activity=like control plants. Tables B1 to B12 below show the effects of selected compounds of the general formula (I) according to Table 1 on various harmful plants and an application rate corresponding to 1280 or 320 g/ha, which were obtained by the experimental procedure mentioned above.

Poa annua (POAAN) [3] = test: Herbicidal post-emergence action (Table B3); details: rated visually after about 3 weeks, 100% = plants have died, 0% = like control plants
Procedure, shortened: as §1

Setaria viridis (SETVI) [4] = test: Herbicidal post-emergence action (Table B4); details: rated visually after about 3 weeks, 100% = plants have died, 0% = like control plants
Description: as §2

[5] = system: Abutilon theophrasti (ABUTH); test: Herbicidal post-emergence action (Table B5); details: rated visually after about 3 weeks, 100% = plants have died, 0% = like control plants
Procedure, shortened: as §1

[6] = system: Amaranthus retroflexus (AMARE); test: Herbicidal post-emergence action (Table B6); details: dosage 1280 g/ha; visual rating about 3 weeks after treatment; 100% = plants have died, 0% = like control plants
Procedure, shortened: as §1

Stellaria media (STEME) = test: Herbicidal post-emergence action (Table B8); details: visual rating about 3 weeks after treatment, 100% = plants have died, 0% = like control plants
Procedure, shortened: as §1

Lolium rigidum (LOLRI) [7] = test: Herbicidal pre-emergence action, test C (Table C2); details: dosage 1280 g/ha; visual scoring after about 3 weeks; 100% = plants have died, 0% = like control plants
Description: Seeds of mono- and dicotyledonous weed plants were placed in plastic pots in sandy loam soil (doubly sown with one species each of mono- or dicotyledonous weed plants per pot) and covered with soil. The compounds of the invention, formulated in the form of wettable powders (WP) or as emulsion concentrates (EC), were then applied onto the surface of the covering soil as aqueous suspension or emulsion with addition of 0.5% additive at a water application rate of 600 liters per hectare (converted). After the treatment, the pots were placed in a greenhouse and kept under good growth conditions for the test plants. After about 3 weeks, the effect of the preparations was scored visually in comparison with untreated controls as percentages. For example, 100% activity=the plants have died, 0% activity=like control plants. Tables C1 to C12 below show the effects of selected compounds of the general formula (I) according to Table 1 on various harmful plants and an application rate corresponding to 1280 or 320 g/ha, which were obtained by the experimental procedure mentioned above.

Poa annua (POAAN) [8] = test: Herbicidal pre-emergence action, test C (Table C3); details: visual scoring after about 3 weeks, 100% = plants have died, 0% = like control plants
Procedure, shortened: (§3)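 Visual scoring after about 3 weeks in the greenhouse gave % activity relative to untreated controls, 100% meaning plants died. Compounds, as WP or EC with 0.5% additive, had been applied to covering soil at 1280 or 320 g/ha in 600 L/ha water.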

Setaria viridis (SETVI) [9] = test: Herbicidal pre-emergence action, test C (Table C4); details: visual scoring after about 3 weeks, 100% = plants have died, 0% = like control plants
Procedure, shortened: as §3

[10] = system: Abutilon theophrasti (ABUTH); test: Herbicidal pre-emergence action, test C (Table C5); details: visual scoring after about 3 weeks, 100% = plants have died, 0% = like control plants
Procedure, shortened: as §3

[11] = system: Amaranthus retroflexus (AMARE); test: Herbicidal pre-emergence action, test C (Table C6); details: visual scoring after about 3 weeks, 100% = plants have died, 0% = like control plants
Procedure, shortened: as §3

[12] = system: Matricaria inodora (MATIN); test: Herbicidal pre-emergence action, test C (Table C7); details: dosage 1280 g/ha; visual scoring after about 3 weeks; 100% = plants have died, 0% = like control plants
Procedure, shortened: as §3

[13] = system: harmful plants ABUTH, AMARE, ECHCG, LOLRI, MATIN, POAAN, SETVI, STEME, ALOMY, DIGSA, KCHSC and VERPE; test: Herbicidal post-emergence action, summary of Tables B1-B12; details: application rate of 1280 or 320 g of active ingredient per hectare; summary in words
Procedure, shortened: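 Activity scored by eye roughly 3 weeks post-treatment against untreated plants, from 0% (no effect) to 100% (plants dead). Application rates were 1280 or 320 g/ha, as aqueous WP/EC spray plus 0.5% additive at 600 L/ha, onto one-leaf-stage weeds grown 2–3 weeks in sandy loam.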

[14] = system: harmful plants ABUTH, AMARE, ECHCG, LOLRI, MATIN, POAAN, SETVI, STEME, ALOMY, DIGSA, KCHSC and VERPE; test: Herbicidal pre-emergence action (test C), summary of Tables C1-C12; details: application rate of 1280 or 320 g of active ingredient per hectare; summary in words
Procedure, shortened: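 Visual % damage versus untreated plants (0% = like control, 100% = died) was scored after about 3 weeks in the greenhouse. Before emergence, seeds sown in sandy loam got a soil-surface spray of compound as WP or EC plus 0.5% additive, using 600 L/ha water at rates of 1280 or 320 g/ha.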

Fc1cccc(Oc2ncc(Cl)cc2Cl)c1-c1cc(C(F)F)no1 [Example 1-21]
Post-emergence action against Echinochloa crus-galli (ECHCG) ([1]; 320 g/ha): 100%
Post-emergence action against Echinochloa crus-galli (ECHCG) ([1]; 1280 g/ha): 100%
Post-emergence action against Lolium rigidum (LOLRI) (Lolium rigidum (LOLRI) [2]): 100%
Post-emergence action against Poa annua (POAAN) (Poa annua (POAAN) [3]; 320 g/ha): 100%
Post-emergence action against Poa annua (POAAN) (Poa annua (POAAN) [3]; 1280 g/ha): 100%
Post-emergence action against Setaria viridis (SETVI) (Setaria viridis (SETVI) [4]; 320 g/ha): 90%
Post-emergence action against Setaria viridis (SETVI) (Setaria viridis (SETVI) [4]; 1280 g/ha): 100%
Post-emergence action against Abutilon theophrasti (ABUTH) ([5]; 320 g/ha): 100%
Post-emergence action against Abutilon theophrasti (ABUTH) ([5]; 1280 g/ha): 100%
Post-emergence action against Amaranthus retroflexus (AMARE) [6]: 90%
Post-emergence action against Stellaria media (STEME) (Stellaria media (STEME); dosage 320 g/ha): 100%
Post-emergence action against Stellaria media (STEME) (Stellaria media (STEME); dosage 1280 g/ha): 100%
Pre-emergence action against Lolium rigidum (LOLRI) (Lolium rigidum (LOLRI) [7]): 100%
Pre-emergence action against Poa annua (POAAN) (Poa annua (POAAN) [8]; dosage 320 g/ha): 100%
Pre-emergence action against Poa annua (POAAN) (Poa annua (POAAN) [8]; dosage 1280 g/ha): 100%
Pre-emergence action against Setaria viridis (SETVI) (Setaria viridis (SETVI) [9]; dosage 320 g/ha): 100%
Pre-emergence action against Setaria viridis (SETVI) (Setaria viridis (SETVI) [9]; dosage 1280 g/ha): 100%
Pre-emergence action against Abutilon theophrasti (ABUTH) ([10]; dosage 320 g/ha): 90%
Pre-emergence action against Abutilon theophrasti (ABUTH) ([10]; dosage 1280 g/ha): 90%
Pre-emergence action against Amaranthus retroflexus (AMARE) ([11]; dosage 320 g/ha): 100%
Pre-emergence action against Amaranthus retroflexus (AMARE) ([11]; dosage 1280 g/ha): 100%
Pre-emergence action against Matricaria inodora (MATIN) [12]: 90%
herbicidal activity against the harmful plants of Tables B1-B12 in post-emergence treatment [13]: very good herbicidal activity
herbicidal activity against the harmful plants of Tables C1-C12 in pre-emergence treatment [14]: very good herbicidal activity
